From patent US20130296412A1, “Artemisinin-Like Derivatives with Cytotoxic and Anti-Angiogenic Properties” (DAFRA PHARMA N.V., priority 2010, published 2013)

Tests used:
[1] = tested on: HUVEC cells; assay: VEGF-induced HUVEC proliferation/viability assay (WST1); format: cell-based, human; conditions: starvation medium EGM-2EV
Description: Single donor HUVEC cells were purchased from Lonza (Breda, Netherlands). Cells were seeded at 5,000 cells per well in 96-well microtiterplates in EGM-2EV medium (Invitrogen). Upon adherence the cells were gently washed twice with PBS and starved overnight in EGM-2EV medium with reduced FBS content (0.1%; starvation medium).
After 96 hrs, cell growth was quantified using the WST1 Rapid cell proliferation kit (Calbiochem), and was expressed in percentage of the control value (VEGF alone). Experiments were carried out in triplets.
To further evaluate the anti-angiogenic potential of the present novel compounds, proliferation and survival of human umbilical vein endothelial cells (HUVECs) treated with VEGF and two compounds that were very active in the zebrafish model were assayed.

[2] = tested on: zebrafish embryos; assay: Tg(fli1:EGFP) zebrafish embryo in vivo angiogenesis assay
Description: Tg(fli1:EGFP) zebrafish, which express enhanced green fluorescent protein (GFP) in their endothelial cells, were used as an in vivo model for angiogenesis. At 20 hours post-fertilization (hpf), zebrafish embryos (10 per well/condition) were bathed in fish media, containing a concentration range of each of the compounds or control. Compounds had been dissolved as stock solutions in DMSO, stored at room temperature, and serially diluted in fish media prior to use. The anti-angiogenic tyrosinase kinase inhibitor SU5416 (Pfizer), and a vehicle-alone control containing the maximum concentration of DMSO were used as controls in all experiments.
In the first sets of experiments, a broad range of concentrations were used to identify the maximum tolerable dose, based on toxicity to the embryos, visualized directly by light microscopy. Subsequent experiments were performed a minimum of two times. Live analyses of the embryos were performed under light and fluorescence microscopy at 28 hpf and 48 hpf to monitor viability, overall morphology, and pattern of swimming. Angiogenesis was evaluated visually by fluorescence microscopy.
The developmental growth and patterning of the dorsal aorta, posterior cardinal vein, intersomitic vessels (ISV), and vascular plexus (VP) were monitored, as was the heart rate, and blood flow.
Eight compounds (4, 7, 8, 9, 10, 11, 12 and 15) were compared to artesunate for their anti-angiogenic potential using an in vivo zebrafish embryo model system (Table III blow). DMSO at concentrations of 0.5, 1, and 2% was used as vehicle control. No effects were observed on overall morphology, heart rate, blood flow, or angiogenesis in control embryos. The anti-angiogenic agent SU5416 was used as a positive control.

[3] = target: P-glycoprotein (P-gp) (Homo sapiens, UniProt P08183)
Sequence of P-glycoprotein (P-gp) (P08183 whole entry): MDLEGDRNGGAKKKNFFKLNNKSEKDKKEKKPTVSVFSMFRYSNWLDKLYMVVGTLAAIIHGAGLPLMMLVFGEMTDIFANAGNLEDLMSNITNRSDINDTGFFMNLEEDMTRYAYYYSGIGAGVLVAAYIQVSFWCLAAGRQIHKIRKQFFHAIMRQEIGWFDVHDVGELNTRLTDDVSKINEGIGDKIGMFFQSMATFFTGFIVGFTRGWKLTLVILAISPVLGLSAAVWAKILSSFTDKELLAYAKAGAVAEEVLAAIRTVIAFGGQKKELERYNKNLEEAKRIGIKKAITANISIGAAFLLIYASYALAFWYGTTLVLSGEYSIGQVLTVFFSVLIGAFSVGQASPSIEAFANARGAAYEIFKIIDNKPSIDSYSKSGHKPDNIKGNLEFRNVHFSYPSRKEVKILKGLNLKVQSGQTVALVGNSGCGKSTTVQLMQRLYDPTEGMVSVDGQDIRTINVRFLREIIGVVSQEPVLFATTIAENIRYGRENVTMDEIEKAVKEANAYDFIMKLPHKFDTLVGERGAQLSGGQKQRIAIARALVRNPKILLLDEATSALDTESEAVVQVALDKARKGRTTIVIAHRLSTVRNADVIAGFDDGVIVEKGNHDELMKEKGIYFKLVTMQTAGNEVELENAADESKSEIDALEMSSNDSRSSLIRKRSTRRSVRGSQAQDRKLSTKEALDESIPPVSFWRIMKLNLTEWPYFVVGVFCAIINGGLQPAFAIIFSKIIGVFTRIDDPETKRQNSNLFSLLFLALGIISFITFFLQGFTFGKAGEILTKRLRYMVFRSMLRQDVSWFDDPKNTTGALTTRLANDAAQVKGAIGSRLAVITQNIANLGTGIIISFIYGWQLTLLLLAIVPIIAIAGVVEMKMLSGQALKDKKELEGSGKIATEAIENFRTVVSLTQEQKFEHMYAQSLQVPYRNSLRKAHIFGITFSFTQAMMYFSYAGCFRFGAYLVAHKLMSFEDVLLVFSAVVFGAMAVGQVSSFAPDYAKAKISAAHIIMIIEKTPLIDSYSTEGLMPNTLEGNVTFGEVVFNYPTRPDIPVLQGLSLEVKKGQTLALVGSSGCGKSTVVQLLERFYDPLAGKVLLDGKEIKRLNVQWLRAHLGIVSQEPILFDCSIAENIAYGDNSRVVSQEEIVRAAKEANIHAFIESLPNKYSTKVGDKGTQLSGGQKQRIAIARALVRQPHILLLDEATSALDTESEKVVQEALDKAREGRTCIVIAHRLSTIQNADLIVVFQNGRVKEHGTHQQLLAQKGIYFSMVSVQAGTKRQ
Description: The intracellular accumulation of calcein inside the cells is measured by using FACS analysis. The points indicate mean values of fluorescent effect, vertical lines show standard error calculated on the base of two independent experiment replicates. The effect corresponds to a control of cells which were treated only with calcein.
Test compounds were dissolved in DMSO as stock solutions and further dilutions were made with DMEM/HAM's F12 1:1 (Biochrom). […] A range of concentrations of test compound in a volume of 300-600 μL cell suspension were added, followed by a 15 min incubation at 37° C. Calcein-AM (300 μL) (MoBiTec, Göttingen, Germany) in DMEM/HAM's F12 1:1 was added to a final concentration of 1 μM and incubated for 30 min at 37° C.
For the calcein-AM assay using flow cytometry, the cell density of suspensions in DMEM/Ham's F12 1:1 was 2.5×10^7 cells/ml.
Gating on forward and side scatter in concert with propidium iodide staining allowed distinguishing live endothelial cells.
Twenty thousand cells were sorted in each run, and data were processed and analyzed with CellQuest (Franklin Lakes, N.J., USA). All fluorescence signals were corrected for background fluorescence. Calcein-AM auto-hydrolysis was measured in control samples (n=6) without cells.

SMILES: C[C@H]1[C@H](OC(=O)CCC(=O)O)O[C@@H]2O[C@@]3(C)CC[C@H]4[C@H](C)CC[C@@H]1[C@@]24OO3 [Artesunate, artesunate, reference compound]
- Behaviour in cell culture medium [1]: precipitation from the cell culture medium
- Dead = number of dead embryos up to 48 hpf ([2]; 25 μg/ml, N = 20 embryos): 1
- Vasc. Defects = number of surviving embryos with vascular defects ([2]; 25 μg/ml, N = 20 embryos): 0
- Dead = number of dead embryos up to 48 hpf ([2]; 50 μg/ml, N = 20 embryos): 1
- Vasc. Defects = number of surviving embryos with vascular defects ([2]; 50 μg/ml, N = 20 embryos): 2
- Dead = number of dead embryos up to 48 hpf ([2]; 100 μg/ml, N = 20 embryos): 1
- Vasc. Defects = number of surviving embryos with vascular defects ([2]; 100 μg/ml, N = 20 embryos): 6
- Dead = number of dead embryos up to 48 hpf ([2]; 200 μg/ml, N = 10 embryos): 1
- Vasc. Defects = number of surviving embryos with vascular defects ([2]; 200 μg/ml, N = 10 embryos): 9
- Anti-angiogenic effect (in words) ([2]; zebrafish embryos, concentration range): dose-dependent anti-angiogenic effects
- P-gp inhibition judged by calcein fluorescence [3]: do not act as P-gp inhibitors
